Measurements: ChEMBL document CHEMBL4507262, “Data for DCP probe A-1596586” (2021)
The source made the active and inactive calls. No cut-off for these calls is given here.

Columns and labels:
[1] = target: RAC-beta serine/threonine-protein kinase (Homo sapiens) (UniProt P31751); conditions: Compound concentration 1000.0 nM
[2] = target: Phosphatidylinositol 3-kinase C2 domain-containing subunit gamma (Homo sapiens) (UniProt O75747); conditions: Compound concentration 1000.0 nM
[3] = target: Calcium/calmodulin-dependent protein kinase type 1B (Homo sapiens) (UniProt Q6P2M8); conditions: Compound concentration 1000.0 nM
[4] = target: Activin receptor type-1B (Homo sapiens) (UniProt P36896); conditions: Compound concentration 1000.0 nM
[5] = target: T1, 5-hydroxytryptamine receptor 3A (Homo sapiens) (UniProt P46098); assay: 5-HT3 (h) Eurofins-Cerep binding assay; set-up: ligand concentration 0.5 nM; conditions: filed as antagonist, Compound concentration 10.0 uM
T1 sequence (whole entry): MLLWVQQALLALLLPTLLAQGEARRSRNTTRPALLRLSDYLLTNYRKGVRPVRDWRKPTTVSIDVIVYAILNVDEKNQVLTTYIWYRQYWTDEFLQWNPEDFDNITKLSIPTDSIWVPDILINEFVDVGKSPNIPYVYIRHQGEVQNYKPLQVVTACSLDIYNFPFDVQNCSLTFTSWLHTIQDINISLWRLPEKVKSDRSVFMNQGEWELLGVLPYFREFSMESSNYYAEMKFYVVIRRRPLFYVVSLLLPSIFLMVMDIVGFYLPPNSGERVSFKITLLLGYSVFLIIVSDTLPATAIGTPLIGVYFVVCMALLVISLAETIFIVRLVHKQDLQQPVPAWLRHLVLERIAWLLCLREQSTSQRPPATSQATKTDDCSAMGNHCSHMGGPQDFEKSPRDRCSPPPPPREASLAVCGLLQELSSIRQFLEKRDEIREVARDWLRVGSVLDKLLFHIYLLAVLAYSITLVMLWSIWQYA

[6] = system: Mast/stem cell growth factor receptor Kit (Homo sapiens), P10721 [V559D,V654A]; conditions: Compound concentration 1000.0 nM
[7] = target: SRSF protein kinase 3 (Homo sapiens) (UniProt Q9UPE1); conditions: Compound concentration 1000.0 nM
[8] = target: T2, Alpha-2B adrenergic receptor (Homo sapiens) (UniProt P18089); conditions: Compound concentration 10.0 uM
T2 sequence (whole entry): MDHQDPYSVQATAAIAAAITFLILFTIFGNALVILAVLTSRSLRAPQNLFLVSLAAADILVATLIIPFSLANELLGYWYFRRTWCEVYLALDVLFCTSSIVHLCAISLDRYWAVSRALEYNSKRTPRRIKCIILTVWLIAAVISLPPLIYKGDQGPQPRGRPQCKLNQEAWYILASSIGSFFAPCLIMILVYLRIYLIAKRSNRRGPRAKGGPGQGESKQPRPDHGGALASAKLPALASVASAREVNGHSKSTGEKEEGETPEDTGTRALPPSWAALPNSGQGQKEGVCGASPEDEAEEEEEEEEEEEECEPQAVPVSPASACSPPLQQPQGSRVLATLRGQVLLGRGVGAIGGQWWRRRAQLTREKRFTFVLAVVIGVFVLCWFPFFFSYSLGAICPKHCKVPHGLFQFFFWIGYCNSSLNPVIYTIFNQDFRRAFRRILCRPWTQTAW

[9] = target: Serine/threonine-protein kinase PLK1 (Homo sapiens) (UniProt P53350); conditions: Compound concentration 1000.0 nM
[10] = target: Ephrin type-A receptor 7 (Homo sapiens) (UniProt Q15375); conditions: Compound concentration 1000.0 nM
[11] = system: Receptor-type tyrosine-protein kinase FLT3 (Homo sapiens), P36888 [D835V]; conditions: Compound concentration 1000.0 nM
[12] = target: Ribosomal protein S6 kinase alpha-4 (Homo sapiens) (UniProt O75676); conditions: Compound concentration 1000.0 nM
[13] = target: Homeodomain-interacting protein kinase 3 (Homo sapiens) (UniProt Q9H422); conditions: Compound concentration 1000.0 nM
[14] = system: Tyrosine-protein kinase ABL1 (Homo sapiens), P00519 [Y253F]; conditions: Compound concentration 1000.0 nM
[15] = target: T3, Cystic fibrosis transmembrane conductance regulator (Homo sapiens, UniProt P13569); assay: CSE-HRP cell viability (Cell surface expression-horseradish peroxidase) assay
[16] = target: Tyrosine-protein kinase TXK (Homo sapiens) (UniProt P42681); conditions: Compound concentration 1000.0 nM
[17] = target: Death-associated protein kinase 3 (Homo sapiens) (UniProt O43293); conditions: Compound concentration 1000.0 nM
[18] = target: Serine/threonine-protein kinase 32A (Homo sapiens) (UniProt Q8WU08); conditions: Compound concentration 1000.0 nM
[19] = target: Adenosine receptor A1 (Homo sapiens) (UniProt P30542); assay: A1 (h) Eurofins-Cerep binding assay; set-up: ligand concentration 1 nM; conditions: filed as antagonist, Compound concentration 10.0 uM
[20] = target: SRSF protein kinase 2 (Homo sapiens) (UniProt P78362); conditions: Compound concentration 1000.0 nM
[21] = target: Inhibitor of nuclear factor kappa-B kinase subunit epsilon (Homo sapiens) (UniProt Q14164); conditions: Compound concentration 1000.0 nM
[22] = target: Serine/threonine-protein kinase haspin (Homo sapiens) (UniProt Q8TF76); conditions: Compound concentration 1000.0 nM
[23] = target: Wee1-like protein kinase 2 (Homo sapiens) (UniProt P0C1S8); conditions: Compound concentration 1000.0 nM
[24] = target: T3, Cystic fibrosis transmembrane conductance regulator; assay: HBE-TECC (Human Bronchial Epithelial- Trans-Epithelial Current Clamp) assay
[25] = target: 5-hydroxytryptamine receptor 1A (Homo sapiens) (UniProt P08908); assay: 5-HT1A (h) Eurofins-Cerep binding assay; set-up: ligand concentration 0.5 nM; conditions: filed as agonist, Compound concentration 10.0 uM
[26] = target: SNF-related serine/threonine-protein kinase (Homo sapiens) (UniProt Q9NRH2); conditions: Compound concentration 1000.0 nM
[27] = target: Dual specificity mitogen-activated protein kinase kinase 2 (Homo sapiens) (UniProt P36507); conditions: Compound concentration 1000.0 nM
[28] = target: Serine/threonine-protein kinase D1 (Homo sapiens) (UniProt Q15139); conditions: Compound concentration 1000.0 nM
[29] = target: Dual specificity mitogen-activated protein kinase kinase 3 (Homo sapiens) (UniProt P46734); conditions: Compound concentration 1000.0 nM
[30] = system: Phosphatidylinositol 4,5-bisphosphate 3-kinase catalytic subunit alpha isoform (Homo sapiens), P42336 [E545K]; conditions: Compound concentration 1000.0 nM
[31] = target: Phosphatidylinositol 4-kinase beta (Homo sapiens) (UniProt Q9UBF8); conditions: Compound concentration 1000.0 nM
[32] = target: LIM domain kinase 2 (Homo sapiens) (UniProt P53671); conditions: Compound concentration 1000.0 nM

T3 sequence (P13569 whole entry): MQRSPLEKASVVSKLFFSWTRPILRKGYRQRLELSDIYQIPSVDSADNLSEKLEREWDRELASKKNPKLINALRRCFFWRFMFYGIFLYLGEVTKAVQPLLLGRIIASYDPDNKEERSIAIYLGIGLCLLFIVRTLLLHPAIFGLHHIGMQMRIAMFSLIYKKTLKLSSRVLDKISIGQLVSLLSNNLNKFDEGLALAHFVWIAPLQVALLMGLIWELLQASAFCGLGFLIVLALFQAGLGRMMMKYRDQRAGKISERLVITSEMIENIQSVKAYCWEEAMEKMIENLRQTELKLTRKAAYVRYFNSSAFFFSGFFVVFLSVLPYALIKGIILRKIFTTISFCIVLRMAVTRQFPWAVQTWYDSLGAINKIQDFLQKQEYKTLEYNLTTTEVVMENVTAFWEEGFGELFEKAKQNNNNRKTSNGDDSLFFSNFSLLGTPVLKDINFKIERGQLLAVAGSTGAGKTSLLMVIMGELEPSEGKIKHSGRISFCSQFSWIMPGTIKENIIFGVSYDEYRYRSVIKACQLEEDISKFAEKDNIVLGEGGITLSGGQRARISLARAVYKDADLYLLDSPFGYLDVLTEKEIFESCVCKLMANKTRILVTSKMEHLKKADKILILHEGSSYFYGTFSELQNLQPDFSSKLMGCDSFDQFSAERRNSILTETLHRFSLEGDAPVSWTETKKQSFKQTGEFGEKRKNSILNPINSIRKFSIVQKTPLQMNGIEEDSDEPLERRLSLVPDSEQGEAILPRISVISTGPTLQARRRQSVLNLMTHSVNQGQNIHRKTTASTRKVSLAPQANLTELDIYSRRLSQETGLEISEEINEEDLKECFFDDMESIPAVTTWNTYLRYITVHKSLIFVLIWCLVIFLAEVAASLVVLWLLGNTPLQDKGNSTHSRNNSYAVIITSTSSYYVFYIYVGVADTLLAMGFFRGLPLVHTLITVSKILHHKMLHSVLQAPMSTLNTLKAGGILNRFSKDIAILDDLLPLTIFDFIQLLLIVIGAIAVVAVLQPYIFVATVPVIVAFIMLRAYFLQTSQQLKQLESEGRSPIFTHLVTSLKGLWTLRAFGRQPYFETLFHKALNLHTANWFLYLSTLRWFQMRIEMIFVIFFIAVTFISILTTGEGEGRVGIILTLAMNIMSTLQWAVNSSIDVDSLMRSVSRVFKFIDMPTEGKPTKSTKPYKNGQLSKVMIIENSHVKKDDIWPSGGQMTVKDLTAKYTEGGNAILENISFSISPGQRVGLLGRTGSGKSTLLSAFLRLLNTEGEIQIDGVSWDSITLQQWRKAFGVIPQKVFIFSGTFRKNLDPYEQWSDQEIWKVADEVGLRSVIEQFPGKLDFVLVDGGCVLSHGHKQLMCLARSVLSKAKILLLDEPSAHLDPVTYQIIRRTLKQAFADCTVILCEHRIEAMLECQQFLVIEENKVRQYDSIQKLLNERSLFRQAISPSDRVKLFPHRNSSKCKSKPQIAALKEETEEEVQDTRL
Chain of Dual specificity mitogen-activated protein kinase kinase 2 (Homo sapiens) (P36507 whole entry): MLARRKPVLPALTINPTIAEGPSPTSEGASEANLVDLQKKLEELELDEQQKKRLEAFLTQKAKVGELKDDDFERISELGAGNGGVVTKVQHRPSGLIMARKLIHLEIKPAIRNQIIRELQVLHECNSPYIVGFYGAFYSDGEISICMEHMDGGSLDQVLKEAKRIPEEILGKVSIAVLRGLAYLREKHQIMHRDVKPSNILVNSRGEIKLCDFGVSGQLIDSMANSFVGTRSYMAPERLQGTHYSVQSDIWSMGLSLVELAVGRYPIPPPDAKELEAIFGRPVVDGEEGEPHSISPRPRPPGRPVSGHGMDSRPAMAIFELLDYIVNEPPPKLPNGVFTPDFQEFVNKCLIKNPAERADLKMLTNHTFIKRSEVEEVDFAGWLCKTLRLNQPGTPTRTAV
Chain of Serine/threonine-protein kinase haspin (Homo sapiens) (Q8TF76 whole entry): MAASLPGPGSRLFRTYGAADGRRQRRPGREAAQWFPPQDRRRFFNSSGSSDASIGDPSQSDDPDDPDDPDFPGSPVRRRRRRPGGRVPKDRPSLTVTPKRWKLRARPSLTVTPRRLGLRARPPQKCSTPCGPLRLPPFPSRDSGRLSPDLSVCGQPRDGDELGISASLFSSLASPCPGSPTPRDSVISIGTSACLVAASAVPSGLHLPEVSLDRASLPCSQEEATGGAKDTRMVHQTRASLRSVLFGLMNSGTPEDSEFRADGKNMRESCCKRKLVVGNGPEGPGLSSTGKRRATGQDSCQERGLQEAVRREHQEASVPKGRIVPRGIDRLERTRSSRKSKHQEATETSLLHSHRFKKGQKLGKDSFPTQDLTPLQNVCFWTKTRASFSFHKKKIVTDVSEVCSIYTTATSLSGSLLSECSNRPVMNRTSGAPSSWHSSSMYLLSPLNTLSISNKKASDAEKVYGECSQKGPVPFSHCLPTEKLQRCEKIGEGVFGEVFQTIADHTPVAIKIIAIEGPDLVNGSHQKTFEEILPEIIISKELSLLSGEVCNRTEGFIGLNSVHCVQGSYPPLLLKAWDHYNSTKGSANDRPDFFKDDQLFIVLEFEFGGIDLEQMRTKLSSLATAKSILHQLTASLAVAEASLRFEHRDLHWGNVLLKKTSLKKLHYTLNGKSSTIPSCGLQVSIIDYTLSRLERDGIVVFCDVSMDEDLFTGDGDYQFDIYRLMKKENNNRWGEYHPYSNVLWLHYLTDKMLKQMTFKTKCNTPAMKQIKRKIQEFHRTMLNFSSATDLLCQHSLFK
Chain of Phosphatidylinositol 4,5-bisphosphate 3-kinase catalytic subunit alpha isoform (Homo sapiens), P42336 [E545K] (P42336 whole entry E545K, canonical isoform): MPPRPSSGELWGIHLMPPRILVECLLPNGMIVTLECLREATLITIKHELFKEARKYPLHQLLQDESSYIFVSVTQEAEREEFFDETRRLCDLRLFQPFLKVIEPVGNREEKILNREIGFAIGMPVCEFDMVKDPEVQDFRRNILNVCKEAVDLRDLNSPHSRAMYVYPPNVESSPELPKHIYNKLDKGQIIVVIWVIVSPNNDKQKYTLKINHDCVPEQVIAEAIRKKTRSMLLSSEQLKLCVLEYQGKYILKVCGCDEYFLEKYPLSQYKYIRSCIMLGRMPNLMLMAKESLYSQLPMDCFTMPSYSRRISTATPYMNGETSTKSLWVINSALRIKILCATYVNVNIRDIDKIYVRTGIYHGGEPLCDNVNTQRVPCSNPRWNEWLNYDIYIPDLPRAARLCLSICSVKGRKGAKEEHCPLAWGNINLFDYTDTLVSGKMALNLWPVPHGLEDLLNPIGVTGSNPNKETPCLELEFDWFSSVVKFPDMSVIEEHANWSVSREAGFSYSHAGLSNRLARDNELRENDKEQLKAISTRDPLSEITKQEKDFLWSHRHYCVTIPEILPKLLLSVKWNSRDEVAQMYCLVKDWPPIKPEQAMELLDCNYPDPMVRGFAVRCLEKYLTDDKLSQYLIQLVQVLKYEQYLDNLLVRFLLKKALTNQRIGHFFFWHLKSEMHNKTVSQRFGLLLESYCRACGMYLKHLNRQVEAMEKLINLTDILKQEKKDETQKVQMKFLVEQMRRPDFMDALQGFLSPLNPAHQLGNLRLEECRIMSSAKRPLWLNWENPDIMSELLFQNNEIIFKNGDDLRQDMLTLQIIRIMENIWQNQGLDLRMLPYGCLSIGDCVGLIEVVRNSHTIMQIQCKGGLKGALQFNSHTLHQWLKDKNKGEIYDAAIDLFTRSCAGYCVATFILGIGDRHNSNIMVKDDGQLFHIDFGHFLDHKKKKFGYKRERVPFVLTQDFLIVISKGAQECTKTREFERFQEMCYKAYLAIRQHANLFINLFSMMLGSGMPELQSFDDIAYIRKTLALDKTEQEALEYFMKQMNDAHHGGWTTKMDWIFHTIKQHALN
Chain of Ribosomal protein S6 kinase alpha-4 (Homo sapiens) (O75676 whole entry, looked up): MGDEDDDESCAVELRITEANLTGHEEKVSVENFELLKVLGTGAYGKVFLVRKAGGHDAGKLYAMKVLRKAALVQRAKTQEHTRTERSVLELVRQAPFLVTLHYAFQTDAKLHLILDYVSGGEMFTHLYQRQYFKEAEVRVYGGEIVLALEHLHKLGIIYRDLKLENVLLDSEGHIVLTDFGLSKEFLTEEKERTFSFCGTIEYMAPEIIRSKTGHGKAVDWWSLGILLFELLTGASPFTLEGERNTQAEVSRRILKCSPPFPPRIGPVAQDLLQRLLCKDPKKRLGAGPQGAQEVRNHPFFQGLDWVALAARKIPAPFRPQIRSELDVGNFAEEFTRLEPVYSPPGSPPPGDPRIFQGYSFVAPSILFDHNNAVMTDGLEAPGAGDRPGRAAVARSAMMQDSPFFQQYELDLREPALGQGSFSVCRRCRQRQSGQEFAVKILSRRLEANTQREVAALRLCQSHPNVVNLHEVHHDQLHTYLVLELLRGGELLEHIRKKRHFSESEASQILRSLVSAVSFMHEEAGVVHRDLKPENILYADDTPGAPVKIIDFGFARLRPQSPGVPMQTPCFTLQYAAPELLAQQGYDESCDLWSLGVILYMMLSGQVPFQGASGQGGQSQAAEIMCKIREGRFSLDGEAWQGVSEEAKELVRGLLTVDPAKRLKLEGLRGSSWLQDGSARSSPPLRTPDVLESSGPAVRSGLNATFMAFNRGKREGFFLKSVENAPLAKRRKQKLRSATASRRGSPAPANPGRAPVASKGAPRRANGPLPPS
Chain of Tyrosine-protein kinase TXK (Homo sapiens) (P42681 whole entry): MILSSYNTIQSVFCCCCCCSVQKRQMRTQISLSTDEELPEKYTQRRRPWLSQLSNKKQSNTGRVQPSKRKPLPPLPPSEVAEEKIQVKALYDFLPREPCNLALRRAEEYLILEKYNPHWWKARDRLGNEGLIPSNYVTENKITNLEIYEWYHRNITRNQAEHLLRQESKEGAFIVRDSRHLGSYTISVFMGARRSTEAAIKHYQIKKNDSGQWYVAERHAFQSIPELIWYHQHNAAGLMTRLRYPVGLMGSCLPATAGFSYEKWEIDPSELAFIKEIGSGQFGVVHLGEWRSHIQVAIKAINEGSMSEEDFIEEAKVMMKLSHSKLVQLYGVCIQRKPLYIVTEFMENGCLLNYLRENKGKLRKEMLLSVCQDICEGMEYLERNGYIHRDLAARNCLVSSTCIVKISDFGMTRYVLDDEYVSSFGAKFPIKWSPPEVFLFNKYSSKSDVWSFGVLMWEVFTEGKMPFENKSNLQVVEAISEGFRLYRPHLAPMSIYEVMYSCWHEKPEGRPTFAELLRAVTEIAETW

| SMILES | residual activity [1] | residual activity [2] | residual activity [3] | residual activity [4] | % Inhibition of Control Specific Binding (Mean n=2) [5] | residual activity [6] | residual activity [7] | inhibition [8] | residual activity [9] | residual activity [10] | residual activity [11] | residual activity [12] | residual activity [13] | residual activity [14] | EC50 [15] | residual activity [16] | residual activity [17] | residual activity [18] | % Inhibition of Control Specific Binding (Mean n=2) [19] | residual activity [20] | also measured |
| --- | --- | --- | --- | --- | --- | --- | --- | --- | --- | --- | --- | --- | --- | --- | --- | --- | --- | --- | --- | --- | --- |
| COc1ccc2c(c1)O[C@H](c1ccc(OC)c(OC)c1)C[C@@H]2NC(=O)C1(c2ccc3c(c2)OC(F)(F)O3)CC1 [A-1596584] | 96% | 61% | 100% | 82% | 0.8% | 100% | 97% | 19.6% | 83% | 100% | 92% | 100% | 91% | 93% | > 20 µM (not active) | 95% | 95% | 100% | 11.5% | 100% | residual activity [21]: 96%; residual activity [22]: 91%; residual activity [23]: 100%; EC50 [24]: > 3 µM (not active); % Inhibition of Control Specific Binding (Mean n=2) [25]: 5%; residual activity [26]: 92%; residual activity [27]: 100%; residual activity [28]: 100%; residual activity [29]: 100%; residual activity [30]: 91%; residual activity [31]: 81%; residual activity [32]: 100% |
| COc1ccc2c(c1)O[C@@H](c1ccc(OC)c(OC)c1)C[C@H]2NC(=O)C1(c2ccc3c(c2)OC(F)(F)O3)CC1 [A-1596586] | 100% | 83% | 100% | 67% | -3% | 100% | 100% | 37.5% | 70% | 86% | 99% | 94% | 77% | 78% | > 20 µM (not active) | 97% | 93% | 100% | 14.3% | 91% | residual activity [21]: 70%; residual activity [22]: 81%; residual activity [23]: 100%; EC50 [24]: 0.028 µM (active); % Inhibition of Control Specific Binding (Mean n=2) [25]: 19.2%; residual activity [26]: 90%; residual activity [27]: 87%; residual activity [28]: 95%; residual activity [29]: 78%; residual activity [30]: 77%; residual activity [31]: 73%; residual activity [32]: 100% |
